Literature values in patent US8426587B2, “Haloallylamine inhibitors of SSAO/VAP-1 and uses therefor” (Pharmaxis Ltd., priority 2007, dated 2013).

Biological target: T1, rat SSAO/VAP-1 (Rattus norvegicus, UniProt O08590)
T1 sequence (O08590 1-763): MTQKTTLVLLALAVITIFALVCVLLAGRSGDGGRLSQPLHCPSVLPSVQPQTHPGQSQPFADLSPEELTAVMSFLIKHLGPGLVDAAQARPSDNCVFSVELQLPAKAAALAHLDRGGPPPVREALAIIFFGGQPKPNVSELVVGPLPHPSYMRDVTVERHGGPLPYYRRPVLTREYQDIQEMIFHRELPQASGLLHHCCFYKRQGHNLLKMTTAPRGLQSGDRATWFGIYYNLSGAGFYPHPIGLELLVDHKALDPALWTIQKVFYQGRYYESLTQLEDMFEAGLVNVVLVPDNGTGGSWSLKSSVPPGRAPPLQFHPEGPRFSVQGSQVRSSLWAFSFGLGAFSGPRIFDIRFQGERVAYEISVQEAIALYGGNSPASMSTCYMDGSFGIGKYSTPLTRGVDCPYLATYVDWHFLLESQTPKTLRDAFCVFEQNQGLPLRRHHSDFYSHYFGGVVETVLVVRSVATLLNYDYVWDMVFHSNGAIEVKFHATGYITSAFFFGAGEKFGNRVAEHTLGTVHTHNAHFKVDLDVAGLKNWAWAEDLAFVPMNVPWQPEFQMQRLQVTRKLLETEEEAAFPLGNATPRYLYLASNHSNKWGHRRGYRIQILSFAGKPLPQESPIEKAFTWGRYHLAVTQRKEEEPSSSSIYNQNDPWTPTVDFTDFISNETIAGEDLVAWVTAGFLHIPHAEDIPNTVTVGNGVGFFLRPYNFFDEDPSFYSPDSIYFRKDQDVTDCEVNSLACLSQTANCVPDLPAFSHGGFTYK
Details: reports in the literature; cited from earlier work

NC/C(=C/Cl)c1ccccc1 [MDL72274]
Selectivity for rat SSAO/VAP-1 compared to MAO-A and MAO-B: selectively inhibiting rat SSAO/VAP-1
